The results in this text go back to US11584728B2, “Compositions and methods for the prevention and/or treatment of mitochondrial disease, including Friedreich's ataxia” (STEALTH BIOTHERAPEUTICS INC., priority 2019, dated 2023).

Like-named read-outs stand apart in the source and are kept apart here. Bounds are passed on as bounds.

Experiment [1] relates to HepG2 human hepatocarcinoma cells. In words: Rotenone ATP-Assay (Complex I by-pass). The experiment is classed as cell-based. The following applies: for EC50: Homo sapiens, 1 h; for Activity in both the BSO Assay and the Rotenone ATP Assay (in words): circumvent BSO induced cell death and restore ATP production when Complex I is inhibited. How it is done: Example 18: Rotenone ATP-Assay
Introduction: • This assay has been adapted from Haefeli R H, Erb M, Gemperli A C, Robay D, Courdier Fruh I, et al. (2011) NQO1-Dependent Redox Cycling of Idebenone: Effects on Cellular Redox Potential and Energy Levels. PLoS ONE 6(3): e17963. HepG2 human hepatocarcinoma cells were co-incubated with the electron transport chain Complex I toxin rotenone +/−compounds of interest and the corresponding effect on ATP synthesis was measured with a bioluminescent substrate.
Assay Experimental: • In brief, HepG2 cells were plated at 25,000 cells per well in low glucose (1 gram/Liter) DMEM medium +10% fetal calf serum and incubated for 24 hours. The following day, the media was decanted and subsequently replaced with glucose free/serum free DMEM which has been supplemented with 50 micromolar rotenone and compound of interest. Serial dilutions of compound were prepared in 3× dilutions beginning at 25 micromolar. The cells were incubated for 60 minutes in a humidified tissue culture incubator. Following incubation, ATP levels were quantified via bioluminescent assay (Promega […]) and readings were captured on a standard microplate reader.
Calculations: • ATP bioluminescence is plotted versus the log of compound of interest and data were used to generate EC50 values. Curve fitting was performed using a sigmoidal dose response curve fit function (GraphPad Prism software).
Robustness of curve fit was assessed as a quality control measure, with an R squared value of at least 0.80 being required for a successful curve fit. Compounds of interest showing an increase in ATP bioluminescence relative to vehicle control were verified in an independent biological replicate of n=3 technical replicates per dose.
Discussion: • This assay is a direct measure of the ability of compounds of interest to restore ATP production under conditions of inhibition of Complex I of the mitochondrial electron transport chain. As the majority of ATP produced via the electron transport chain is thought to derive from Complex I activity, significant impairment in Complex I function has dire biological consequences. Of note, Complex I mutations are thought to drive pathophysiology in multiple mitochondrial diseases, including Leigh syndrome and Leber's Hereditary Optic Neuropathy (LHON), while diminished Complex I activity and the resultant attenuation of ATP production has been shown in neurodegenerative diseases, including Friedreich's Ataxia, Parkinson's Disease and Huntington's Disease.

The test system of experiment [2] is GM03665 cells. Kind of experiment: RSL3 Toxicity Assay (RSL3 Assay). The format is cell-based, human. The following applies: for EC50: Homo sapiens, GM03665 cells, RSL3 2 μM, 24 hours, MTT. On the procedure:
Example 19: RSL3 Toxicity Assay (RSL3 Assay)
In brief, GM03665 cells (Coriell Institute) were seeded in 96-well plates (Sarstedt) in DMEM cell culture media containing 10% Fetal Bovine serum and 1% Penicillin-Streptomycin (Pen-Strep) antibiotic mix at the amount of 2×10^4/mL (100 μL or 2×10^3 cells per well). Cells were left to rest overnight at 37° C. in a humidified atmosphere with 5% CO2 to allow attachment of the cells to the culture plate. Test compounds were prepared as DMSO stocks (10 mM) and were serially diluted in cell culture media to obtain 2× working solutions. Cell media was discarded and replaced by 50 μL of test compound solutions or cell media with vehicle for control wells. Within 15 minutes, 2× working solution (4 μM) of 1S,3R-RSL3 (CAS #1219810-16-8, Sigma-Aldrich) (diluted from 5 mM DMSO stock in cell culture media) was added. Final reaction volume was 100 μL and final DMSO concentration in reaction was kept below 0.2% (v/v) and equal in all wells. Final RSL3 concentration was 2 μM and test compound final concentrations in reaction were up to 1000 nM. After 24 hours of incubation cell viability was assessed by MTT test. MTT (Sigma-Aldrich) solution 1 mg/mL in 1×PBS (pH=7,4) was prepared 1 hour before the assay and filtered through Filtropur S 0.2 filters (Sarstedt). Cell media with test compounds was discarded and 100 μL of MTT solution was added to cells. The plates were incubated for 2 hours at +37° C. Thereafter, the MTT solution was removed and 100 μL of isopropanol was added to dissolve sediment. Absorption at 570 and 650 nm was measured using Hidex Sense microplate reader.

Experiment [3] has as its system Nrf-2. Kind of experiment: Nrf-2 Activation Assay (Nrf-2 Assay). The format is cell-based, human. The following applies: Table 7; GM03665 fibroblasts, 1 μM, 24 hours, qPCR of Nrf-2 responsive genes. How it is done:
Example 21: Nrf-2 Activation Assay (Nrf-2 Assay)
This assay was developed internally and was designed to determine if the novel test compounds disclosed herein active Nrf-2 and thereby promote resolution of inflammation by the mechanism believed to be responsible for the activity of omaveloxolone.
Briefly, GM03665 Friedreich Ataxia patient fibroblasts were grown in 12 Well Plates (TC Cell+F) (Sarstedt, Nümbrecht Germany), at a density of 12×10^4 cells/per well in DMEM/F12 (Gibco, ThermoFisher Scientific, Waltham, Mass., USA) cell media supplemented with 10% FBS and 1% Pen/Strep. Cells were left to rest overnight at 37° C. in a humidified atmosphere with 5% CO2 to allow attachment of the cells to the culture plate. Before continuing assay visual inspection of each well was done by light microscopy to detect any possible bacterial and fungal contamination. […] After incubation, cell media was removed and total RNA from the cells was isolated using E.Z.N.A.® Total RNA Kit I (Omega Bio-tek, Norcross, Ga., USA) spin columns, and first-strand cDNA synthesis was carried out using a High Capacity cDNA Reverse Transcription Kit (Applied Biosystems™, Foster City, Calif.) following the manufacturer's instructions. qPCR analysis of gene expression was performed by mixing SYBR® Green Master Mix (Applied Biosystems™) with synthesized cDNA and forward and reverse primers. […] (60 cycles), and 95° C. for 60 seconds, followed by melt curve analysis at 72-95° C., 0.3° C./sec. The relative expression levels for each gene were calculated with the ΔΔCt method and normalized to the expression of REEP5 and SNRPD3 genes.
On the technique in general: Quantitative PCR measures a nucleic acid by following its amplification.

The target of experiment [4] is lipoxygenase-15 enzyme (Glycine max (Soybean) (Glycine hispida), UniProt P08170). Kind of experiment: Lipoxygenase-15 Assay (LO-15-Assay). The experiment is classed as biochemical. The settings on record: reduced (hydroquinone) form.
The subject of experiment [5] is frataxin deficient fibroblasts (GM03665). Kind of experiment: Frataxin Deficient Fibroblast Viability Assay (BSO Assay). The following applies: Homo sapiens, 48 h.
Experiment [6] has as its system intact HepG2 cells. Kind of experiment: Rotenone Oxygraph Assay (High-Resolution Respirometry of Intact HepG2 Cells). The experiment is classed as cell-based, human. The settings on record: rotenone 1 μM, compound 10 μM; for Percent increase in ATP (Rotenone Oxygraph Assay), Mean: Table 4; for Percent increase in ATP (Rotenone Oxygraph Assay), Mean / Rotenone Oxygraph Assay % Increase: intact HepG2 cells; for Rotenone Oxygraph Assay % Increase: Table 7. On the procedure: Example 20: Rotenone Oxygraph Assay (High-Resolution Respirometry of Intact HepG2 Cells)
The Oxygraph-2k (O2k, OROBOROS INSTRUMENTS, Austria) was used for measurements of respiration of intact cells. The respirometry was performed in Dulbecco's Modified Eagle Medium (DMEM) high glucose without supplements. All experiments were performed at 37° C.
HepG2 cells (ATCC collection code HB-8065™) were cultured in 10 cm^2 culture dishes in DMEM high glucose medium supplemented with 10% fetal bovine serum (FBS) and 100 units/mL penicillin and 100 μg/mL streptomycin until approximately 90% confluence was reached. Immediately prior to performing the respirometric assay, the cells were washed with media without FBS, trypsinized and resuspended in DMEM high glucose without FBS.
The final concentration of intact cells in the O2k-chamber was 0.5·10^6/mL. After stabilization of respiration, the Complex I inhibitor, rotenone, at 1 μM final concentration was added to inhibit electron flux via Complex I. Then, compound to be tested was added at 10 μM final concentration, and the change in respiration rate of intact cells was monitored.

[7] abbreviates: HepG2 cells, 50 micromolar rotenone, 60 minutes, ATP bioluminescence, read-out: EC50 Rotenone ATP Assay.
[8] abbreviates: Table 7, HepG2 cells, 50 micromolar rotenone, 60 minutes, read-out: Rotenone ATP Assay EC50.
Setting [9] is: Table 3, mean of at least three measurements, nM printed in Table 7, read-out: RSL3 Assay EC50, Mean.
The mark [10] stands for this setting: Table 7, read-out: RSL3 Assay EC50.

Take `CC1=C(C)C(=O)C(CC[C@](C)(O)CC/C=C(\C)CC/C=C(\C)CCC=C2COC2)=C(C)C1=O` [Compound E, 2-((R,6E,10E)-3-hydroxy-3,7,11-trimethyl-14-(oxetan-3-ylidene)tetradeca-6,10-dien-1-yl)-3,5,6-trimethylcyclohexa-2,5-diene-1,4-dione]: the EC50 in experiment [1] (setting [7]) is 1000 to 3000 nM; in experiment [1] (setting [8]), 2810 nM; in experiment [2] (setting [9]) it was 73.2 nM; in experiment [2] (setting [10]), 73.2 nM; in experiment [5] (read-out: BSO Assay) it was 65.1 nM; in experiment [5] (read-out: EC50 (nM) BSO Assay), under 100 nM. Further, in experiment [1], the “Activity in both the BSO Assay and the Rotenone ATP Assay (in words)” value is “possess both activities”. Moreover, in experiment [3], the “Nrf-2 Assay” value is listed as “Inactive”. For the same compound, the “Activity in the LO-15 assay (in words)” value in experiment [4] is “outside of the range of the assay”.
For `CC1=C(C)C(=O)C(CC[C@@](C)(O)COCCC[Si](C)(C)C)=C(C)C1=O` [Compound M, (R)-2-(3-hydroxy-3-methyl-4-(3-(trimethylsilyl)propoxy)butyl)-3,5,6-trimethylcyclohexa-2,5-diene-1,4-dione], the EC50 in experiment [1] (setting [7]) is 1000 to 3000 nM; in experiment [1] (setting [8]) it was 1340 nM; in experiment [2] (setting [9]) it was 41.2 nM; in experiment [2] (setting [10]), 41.2 nM; in experiment [5] (read-out: BSO Assay) it was 61.2 nM. Besides, the “Activity in the RSL3 assay (in words)” value in experiment [2] (protection of Friedreich's ataxia fibroblasts from RSL3) is reported as “active”. Besides, the “Percent increase in ATP (Rotenone Oxygraph Assay), Mean” value in experiment [6] was 56.6 +/− 11.3%. In addition, the “Rotenone Oxygraph Assay % Increase” value in experiment [6] was 56.6 +/− 11.3%. In experiment [3], the “Nrf-2 Assay” value is on record as “Inactive”. Also, the “Activity in the LO-15 assay (in words)” value in experiment [4] is reported as “best result”.
As for `CC1=C(C)C(=O)C(CC[C@](C)(O)CCCCCCCCC(F)(F)F)=C(C)C1=O` [Compound N, (R)-2,3,5-trimethyl-6-(12,12,12-trifluoro-3-hydroxy-3-methyldodecyl)cyclo-hexa-2,5-diene-1,4-dione], the EC50 in experiment [1] (setting [7]) was 1000 to 3000 nM; in experiment [1] (setting [8]), 2360 nM; in experiment [2] (setting [9]), 93 nM; in experiment [2] (setting [10]), 93 nM; in experiment [5] (read-out: BSO Assay) it was 144 nM; in experiment [5] (read-out: EC50 (nM) BSO Assay), 100 to 1000 nM. Further, the “Activity in both the BSO Assay and the Rotenone ATP Assay (in words)” value in experiment [1] was “possess both activities”. For the same compound, the “Nrf-2 Assay” value in experiment [3] was “Inactive”.
Take `CC(C)=CCC/C(C)=C/CC/C(C)=C/CC[C@@](C)(O)CCC1=C(C)C(=O)C(C)=C(C)C1=O` [Vatiquinone, reference compound]: the EC50 is over 3000 nM in experiment [1] (setting [7]); 56 nM in experiment [2] (setting [9]); 56 nM in experiment [2] (setting [10]); 44.3 nM in experiment [5] (read-out: BSO Assay); under 100 nM in experiment [5] (read-out: EC50 (nM) BSO Assay). In experiment [1] (Table 7, HepG2 cells, 50 micromolar rotenone, 60 minutes), the “Rotenone ATP Assay EC50, nM” value is recorded as “Inactive”. Further, the “Percent increase in ATP (Rotenone Oxygraph Assay), Mean” value in experiment [6] is reported as “Inactive”. In addition, the “Rotenone Oxygraph Assay % Increase” value in experiment [6] is on record as “Inactive”. Moreover, in experiment [6], the “Activity in the Rotenone Oxygraph assay, Complex I by-pass (in words)” value is “inactive”.
